Patent US20260115170A1, “Method of Ameliorating a Symptom or a Disease in a Human Caused by Fungus” (ISHIHARA SANGYO KAISHA, LTD., priority 2020, published 2026)
In brackets after ≈: the same amount, converted by molar mass.

Legend:
Experiment in all cases: Test Example 2 minimum inhibitory concentration
Assay type in all cases: cell-based
[1] = tested on: Trichophyton rubrum (ATCCMYA4607); settings: Sabouraud medium, 25° C. for 120 hours
Method: (§1) Test Microbial Strains: Candida albicans (NBRC1594 Strain), Candida glabrata (JCM3761 Strain), Cryptococcus neoformans (JCM3685 Strain), Aspergillus fumigatus (JCM10253), Aspergillus niger (ATCC6725), Trichophyton rubrum (ATCCMYA4607), Trichophyton interdegitale (ATCC9533), Microsporum canis (NBRC7863), and Arthroderma vanbreuseghemii (JCM1891)
(§2) The Candida microbes and the Cryptococcus microbe were cultured at 30° C. for 72 hours and the other microbes were cultured at 25° C. for 120 hours in Sabouraud media, and then suspended in 5 mL of PBS (containing 8 g of sodium chloride, 2.9 g of disodium hydrogen phosphate, 0.2 g of potassium chloride, and 0.2 g of potassium dihydrogen phosphate in 1000 mL) containing Tween80 (polyoxyethylene sorbitan monooleate: Kanto Chemical Co., Inc.) (1% (V/V))), and the resulting suspension was filtered through a cell strainer (φ40 μm). Spores were recovered from the filtrate by centrifugation (3500 rpm, 5 minutes) and washed twice with physiological saline, and then a spore suspension was prepared (1×10^6 spores/mL). 50 μL of the spore suspension was inoculated into a Sabouraud medium to which compound No. 6 dissolved in DMSO was added to have a predetermined concentration. The Candida microbes and the Cryptococcus microbe were cultured at 30° C. for 72 hours and the other microbes were cultured at 25° C. for 120 hours, then the presence or absence of colony growth was investigated, and the minimum inhibitory concentration was determined.

[2] = tested on: Aspergillus niger (ATCC6725); settings: Sabouraud medium, 25° C. for 120 hours
Method: as §1, §2

[3] = tested on: Cryptococcus neoformans (JCM3685 Strain); settings: Sabouraud medium, 30° C. for 72 hours
Method: as §1, §2

[4] = tested on: Arthroderma vanbreuseghemii (JCM1891); settings: Trichophyton mentagrophytes, Sabouraud medium, 25° C. for 120 hours
Method: as §1, §2

[5] = tested on: Microsporum canis (NBRC7863); settings: Sabouraud medium, 25° C. for 120 hours
Method: as §1, §2

[6] = tested on: Trichophyton interdegitale (ATCC9533); settings: Sabouraud medium, 25° C. for 120 hours
Method: as §1, §2

[7] = tested on: Candida albicans (NBRC1594 Strain); settings: Sabouraud medium, 30° C. for 72 hours
Method: as §1, §2

[8] = tested on: Candida glabrata (JCM3761 Strain); settings: Nakaseomyces glabratus, Sabouraud medium, 30° C. for 72 hours
Method: as §1, §2

[9] = tested on: Aspergillus fumigatus (JCM10253); settings: Sabouraud medium, 25° C. for 120 hours
Method: as §1, §2

- MIC [1]: 31.3 µg/mL (≈ 124 µM)
- MIC [2]: 62.5 µg/mL (≈ 248 µM)
- MIC [3]: 31.3 µg/mL (≈ 124 µM)
- MIC [4]: 7.8 µg/mL (≈ 30.9 µM)
- MIC [5]: 125 µg/mL (≈ 496 µM)
- MIC [6]: 62.5 µg/mL (≈ 248 µM)
- MIC [7]: 250 µg/mL (≈ 992 µM)
- MIC [8]: 250 µg/mL (≈ 992 µM)
- MIC [9]: 62.5 µg/mL (≈ 248 µM)
SMILES: Cc1ccc(-c2nc(C#N)[nH]c2Cl)cc1Cl [Compound No. 6, 5-Chloro-4-(3-chloro-4-methylphenyl)-1H-imidazole-2-carbonitrile]
